Source: the NIST ThermoML archive (doi:10.1016/j.jct.2011.11.019)

Test: xn = mol fraction of the nth substance listed
Settings: 298.15 K, 101 kPa, Liquid, Vibrating tube method

OC(C(F)(F)F)C(F)(F)F [1,1,1,3,3,3-hexafluoro-2-propanol] + O
Settings	mass density [kg/m3]
x1 = 0.1024	1261.96
x1 = 0.205	1387.36
x1 = 0.3016	1455.74
x1 = 0.4067	1501.77
x1 = 0.4929	1527.75
x1 = 0.5943	1550.19
x1 = 0.6411	1558.59
x1 = 0.8065	1585.8
x1 = 0.9005	1593.04
